# In article PMC10060287 (Pharmacological Reports, 2023):
# “Also recorded” adds a separate entry of the source. Ends that are not written are not given here.
# Columns and labels:
# µ-opioid receptor (µOR) [1] = biological target: T1, µ-opioid receptor (µOR) (Rattus norvegicus, UniProt P33535); assay type: binding, Wistar rat (brain membranes)
# µ-opioid receptor (µOR) [2] = biological target: T1, µ-opioid receptor (µOR); experiment: Saturation binding of [^3H]DAMGO with varying G-peptide concentrations; assay type: Wistar rat (brain membranes)
# T1 sequence (P33535 whole entry): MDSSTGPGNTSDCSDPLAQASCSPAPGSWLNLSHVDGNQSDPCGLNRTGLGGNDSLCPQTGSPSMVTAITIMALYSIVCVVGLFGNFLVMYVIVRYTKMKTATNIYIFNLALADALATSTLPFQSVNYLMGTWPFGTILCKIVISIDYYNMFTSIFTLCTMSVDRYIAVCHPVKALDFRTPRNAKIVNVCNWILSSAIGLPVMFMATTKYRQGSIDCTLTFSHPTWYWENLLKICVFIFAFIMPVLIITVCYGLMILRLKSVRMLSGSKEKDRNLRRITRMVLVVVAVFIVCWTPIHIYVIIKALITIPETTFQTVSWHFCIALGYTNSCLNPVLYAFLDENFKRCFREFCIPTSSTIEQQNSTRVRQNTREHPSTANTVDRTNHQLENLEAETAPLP
substance,measurement,setting,value
IIKNNLKDCGLF-NH2 [G-peptide],G-peptide concentration needed for characteristic shift in the binding curve of morphine,µ-opioid receptor (µOR) [1],≥ 100 µM
same,affinity of the peptide,µ-opioid receptor (µOR) [1],micromolar level; also recorded: micromolar range
same,allosteric modulation of µOR,µ-opioid receptor (µOR) [1],binds the µ-opioid receptor and acts as an allosteric modulator
same,dose dependence of G-peptide effect on morphine binding,µ-opioid receptor (µOR) [1],increases µOR affinity for its agonist morphine in a dose-dependent way
same,orthosteric binding of the G-peptide,µ-opioid receptor (µOR) [1],no significant orthosteric coupling to µOR; also recorded: inactive through the orthosteric binding site of µOR; also recorded: did not interact directly with the orthosteric binding site
same,affinity increase caused by the G-peptide,µ-opioid receptor (µOR) [2]; saturation experiments for [H^3]DAMGO,dose dependency of the affinity increase
same,lowest G-peptide concentration affecting the binding,µ-opioid receptor (µOR) [2]; saturation experiments with radio-ligand,10 µM
same,Bmax of DAMGO upon adding G-peptide,"µ-opioid receptor (µOR) [2]; two sets of experiments, G-peptide 0.01 to 25 µM and 0.01 to 200 µM",concentration-dependent decrease in the Bmax value of DAMGO
same,equilibrium dissociation constant Kd and Bmax of DAMGO upon adding G-peptide,µ-opioid receptor (µOR) [2]; varying concentrations of the G-peptide,change in both the equilibrium dissociation constant Kd and Bmax
